# Laboratory results from PubChem BioAssay (NCI).
#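 Following 48 hours of exposure in 96-well plates, responses at five concentrations were used to interpolate endpoints linearly. The concentration for 50% growth inhibition is given as GI50. TGI is the concentration that stops growth completely.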
# Assays:
# Experiment in all cases: NCI-60 cell line screen, 48 h
# PC-3 prostate = test system: PC-3 prostate
# OVCAR-4 ovarian = test system: OVCAR-4 ovarian
# NCI-H226 lung = test system: NCI-H226 lung
# ACHN renal = test system: ACHN renal
# NCI-H522 lung = test system: NCI-H522 lung
# DU-145 prostate = test system: DU-145 prostate
# NCI/ADR-RES ovarian = test system: NCI/ADR-RES ovarian
# UACC-62 melanoma = test system: UACC-62 melanoma
# RXF 393 renal = test system: RXF 393 renal
# NCI-H460 lung = test system: NCI-H460 lung
# UO-31 renal = test system: UO-31 renal
# EKVX NSCLC = test system: EKVX NSCLC
# A498 renal = test system: A498 renal
# T-47D breast = test system: T-47D breast
# HCC-2998 colon = test system: HCC-2998 colon
# SNB-19 CNS = test system: SNB-19 CNS
# SW-620 colon = test system: SW-620 colon
# SK-MEL-5 melanoma = test system: SK-MEL-5 melanoma
# HS 578T breast = test system: HS 578T breast
# TK-10 renal = test system: TK-10 renal
# UACC-257 melanoma = test system: UACC-257 melanoma
# SF-295 CNS = test system: SF-295 CNS
# SK-MEL-2 melanoma = test system: SK-MEL-2 melanoma
# U251 CNS = test system: U251 CNS
# HOP-62 NSCLC = test system: HOP-62 NSCLC
# BT-549 breast = test system: BT-549 breast
# SN12C renal = test system: SN12C renal
# 786-0 renal = test system: 786-0 renal
# SNB-75 CNS = test system: SNB-75 CNS
# COLO 205 colon = test system: COLO 205 colon
# OVCAR-5 ovarian = test system: OVCAR-5 ovarian
# SF-539 CNS = test system: SF-539 CNS
# SF-268 CNS = test system: SF-268 CNS
# A549 NSCLC = test system: A549 NSCLC
# SK-OV-3 ovarian = test system: SK-OV-3 ovarian
# HOP-92 NSCLC = test system: HOP-92 NSCLC
# MDA-MB-435 = test system: MDA-MB-435
# IGROV1 ovarian = test system: IGROV1 ovarian
# OVCAR-3 ovarian = test system: OVCAR-3 ovarian
# CAKI-1 renal = test system: CAKI-1 renal
# LOX IMVI melanoma = test system: LOX IMVI melanoma
# SK-MEL-28 melanoma = test system: SK-MEL-28 melanoma
# CCRF-CEM leukemia = test system: CCRF-CEM leukemia
# HCT-15 colon = test system: HCT-15 colon
# KM12 colon = test system: KM12 colon
# MALME-3M melanoma = test system: MALME-3M melanoma
# HCT-116 colon = test system: HCT-116 colon
# MCF7 breast = test system: MCF7 breast
# M14 melanoma = test system: M14 melanoma
# MDA-MB-231 breast = test system: MDA-MB-231 breast
# RPMI-8226 leukemia = test system: RPMI-8226 leukemia
# OVCAR-8 ovarian = test system: OVCAR-8 ovarian
smiles,measurement,setting,value
CCN1CCN(S(=O)(=O)c2oc(-c3ccc(Cl)cc3)nc2C#N)CC1,GI50,PC-3 prostate,13.3 µM
same,TGI,PC-3 prostate,26.9 µM
same,GI50,OVCAR-4 ovarian,4.04 µM
same,TGI,OVCAR-4 ovarian,23.4 µM
same,GI50,NCI-H226 lung,2.46 µM
same,TGI,NCI-H226 lung,7.01 µM
same,GI50,ACHN renal,1.91 µM
same,TGI,ACHN renal,3.42 µM
same,GI50,NCI-H522 lung,1.48 µM
same,TGI,NCI-H522 lung,3.06 µM
same,GI50,DU-145 prostate,7.58 µM
same,TGI,DU-145 prostate,21 µM
same,GI50,NCI/ADR-RES ovarian,18.7 µM
same,TGI,NCI/ADR-RES ovarian,62.7 µM
same,GI50,UACC-62 melanoma,11.2 µM
same,TGI,UACC-62 melanoma,24.2 µM
same,GI50,RXF 393 renal,1.89 µM
same,TGI,RXF 393 renal,3.5 µM
same,GI50,NCI-H460 lung,15.8 µM
same,TGI,NCI-H460 lung,39.9 µM
same,GI50,UO-31 renal,4.1 µM
same,TGI,UO-31 renal,15.9 µM
same,GI50,EKVX NSCLC,16 µM
same,TGI,EKVX NSCLC,29.8 µM
same,GI50,A498 renal,29.4 µM
same,TGI,A498 renal,82.4 µM
same,GI50,T-47D breast,2.24 µM
same,TGI,T-47D breast,6.24 µM
same,GI50,HCC-2998 colon,15.8 µM
same,TGI,HCC-2998 colon,31.4 µM
same,GI50,SNB-19 CNS,15.7 µM
same,TGI,SNB-19 CNS,29.3 µM
same,GI50,SW-620 colon,1.69 µM
same,TGI,SW-620 colon,4.17 µM
same,GI50,SK-MEL-5 melanoma,15.9 µM
same,TGI,SK-MEL-5 melanoma,29.6 µM
same,GI50,HS 578T breast,20.9 µM
same,TGI,HS 578T breast,69.4 µM
same,GI50,TK-10 renal,12.8 µM
same,TGI,TK-10 renal,25.8 µM
same,GI50,UACC-257 melanoma,10.8 µM
same,TGI,UACC-257 melanoma,23.1 µM
same,GI50,SF-295 CNS,17.3 µM
same,TGI,SF-295 CNS,31.8 µM
same,GI50,SK-MEL-2 melanoma,14.5 µM
same,TGI,SK-MEL-2 melanoma,28.3 µM
same,GI50,U251 CNS,14.9 µM
same,TGI,U251 CNS,30.9 µM
same,GI50,HOP-62 NSCLC,17.2 µM
same,TGI,HOP-62 NSCLC,33.6 µM
same,GI50,BT-549 breast,4.87 µM
same,TGI,BT-549 breast,18.5 µM
same,GI50,SN12C renal,11.4 µM
same,TGI,SN12C renal,24.5 µM
same,GI50,786-0 renal,2.78 µM
same,TGI,786-0 renal,8.19 µM
same,GI50,SNB-75 CNS,14.1 µM
same,TGI,SNB-75 CNS,27.4 µM
same,GI50,COLO 205 colon,2.07 µM
same,TGI,COLO 205 colon,3.76 µM
same,GI50,OVCAR-5 ovarian,14.5 µM
same,TGI,OVCAR-5 ovarian,29.4 µM
same,GI50,SF-539 CNS,6.47 µM
same,TGI,SF-539 CNS,19.8 µM
same,GI50,SF-268 CNS,11.8 µM
same,TGI,SF-268 CNS,41.3 µM
same,GI50,A549 NSCLC,17.8 µM
same,TGI,A549 NSCLC,35.1 µM
same,GI50,SK-OV-3 ovarian,18.7 µM
same,TGI,SK-OV-3 ovarian,36.9 µM
same,GI50,HOP-92 NSCLC,2.75 µM
same,TGI,HOP-92 NSCLC,10.1 µM
same,GI50,MDA-MB-435,4.47 µM
same,TGI,MDA-MB-435,16.3 µM
same,GI50,IGROV1 ovarian,15.8 µM
same,TGI,IGROV1 ovarian,37 µM
same,GI50,OVCAR-3 ovarian,1.95 µM
same,TGI,OVCAR-3 ovarian,3.74 µM
same,GI50,CAKI-1 renal,1.38 µM
same,TGI,CAKI-1 renal,2.74 µM
same,GI50,LOX IMVI melanoma,1.13 µM
same,TGI,LOX IMVI melanoma,2.54 µM
same,GI50,SK-MEL-28 melanoma,3.6 µM
same,TGI,SK-MEL-28 melanoma,12.3 µM
same,GI50,CCRF-CEM leukemia,1 µM
same,TGI,CCRF-CEM leukemia,8.75 µM
same,GI50,HCT-15 colon,1.76 µM
same,TGI,HCT-15 colon,3.92 µM
same,GI50,KM12 colon,15.7 µM
same,TGI,KM12 colon,42.8 µM
same,GI50,MALME-3M melanoma,2.07 µM
same,TGI,MALME-3M melanoma,4.12 µM
same,GI50,HCT-116 colon,2.12 µM
same,TGI,HCT-116 colon,6.98 µM
same,GI50,MCF7 breast,2.3 µM
same,TGI,MCF7 breast,10.4 µM
same,GI50,M14 melanoma,3.5 µM
same,TGI,M14 melanoma,15.7 µM
same,GI50,MDA-MB-231 breast,14.5 µM
same,TGI,MDA-MB-231 breast,29.1 µM
same,GI50,RPMI-8226 leukemia,3.26 µM
same,TGI,RPMI-8226 leukemia,13.5 µM
same,GI50,OVCAR-8 ovarian,12.9 µM
same,TGI,OVCAR-8 ovarian,27.2 µM
